# Data published in patent publication US20230310309A1, “INJECTABLE DEPOT COMPOSITIONS FOR THE DELIVERY OF ANTIVIRAL AGENTS” (Merck Sharp & Dohme LLC, priority 2020, published 2023).
# Experiment: solubility of islatravir in PBS
# Type: physicochemical
# Conditions: phosphate buffered saline (PBS), aqueous buffer, 37° C.
smiles,measurement,value
"C#C[C@]1(CO)O[C@@H](n2cnc3c(N)nc(F)nc32)C[C@@H]1O [islatravir, 4′-ethynyl-2-fluoro-2′-deoxyadenosine]",solubility,1350 µg/mL
